Source: patent US20240091254A1, “WNT AGONISTS FOR PREVENTION OF CANCER” (ACADEMISH MEDISCH CENTRUM, priority 2021, published 2024)

How the values were obtained:
intestinal adenomas = experiment: Long term adenoma formation in Lgr5-CreErt2;Apcfl/fl mice; format: in vivo, mouse; conditions: LiCl pre-treatment and maintenance, 60 days after induction
Experimental: (§1) Lgr5-EGFP-IRES-Cre^ERT2 Villin-Cre^ERT2, Rosa26mTmG, Apc^fl/fl and Kras^G12D mice have been described earlier^30-34. All in vivo experiments were approved by the animal experimentation committee at the Amsterdam UMC—location Academic Medical Center in Amsterdam under nationally registered licence number AVD1180020172125 and performed according to national guidelines. Mice were housed in a 12 hour light/12 hour dark cycle, with temperatures between 20-24° C. and 40-70% humidity. For short term assays, both male and female mice were used. For long term assays, only females were used to prevent the risk of preliminary dropout due to fighting male mice. All mice were between 6-12 weeks old at the start of the experiments. For all mouse experiments, sufficient sample sizes were determined based on previous studies with a similar study design^3,35. Experimental animals were randomly assigned to the control or lithium treated groups, clone sizes and adenoma counts were scored blindly. […] Mouse discomfort during tumour formation assays was closely monitored, and endpoints were determined as <15% weight loss within 2 days or a mouse grimace scale (MGS) score<3. […] After 60 days, intestines were removed and polyps were counted macroscopically.

KrasG12D-mutant clones = experiment: KrasG12D clone dynamics in vivo with or without LiCl; set-up: species or system mouse; conditions: Lgr5-CreErt2;Rosa26mTmG;KrasG12D mice
Experimental: as §1, with “All mice were between 6-12 weeks old at the start of the experiments.” left out
After the mice were sacrificed, intestines were removed fully and washed thoroughly with ice-cold PBS. […] For all crypt analyses, clone sizes were quantified as proportions of the crypt circumference (in eights, 1:8-8:8). […]

[1] = system: Wnt pathway (TOP-GFP reporter); experiment: TOP-GFP Wnt reporter assay in MEFs; format: cell-based, mouse
Experimental: Mouse embryonic fibroblasts (MEFs, ATCC) and HEK293T (ATCC) cells were both cultured in Dulbecco's Modified Eagle's Medium (DMEM) supplemented with 10% fetal calf serum (FCS), 1% Glutamine, and antibiotic penicillin and streptomycin. Cells were maintained at 37° C. in humidified air containing 5% CO2. All cell lines were routinely checked for mycoplasm contamination, no cell line authentication was performed.
Mouse embryonic fibroblasts (MEFs) were cultured in Dulbecco's Modified Eagle's Medium (DMEM) supplemented with 10% fetal calf serum (FCS), 1% Glutamine, and antibiotic penicillin and streptomycin. MEFs were stably transduced with Wnt reporter TOP-GFP (Addgene plasmid #35491). For TOP-GFP assays, cells were stimulated with Wnt3A conditioned medium for 24 hours after which GFP positivity was measured by flow cytometry.

human colon organoids = experiment: Human colon organoids incubated with FAP CM; format: cell-based; conditions: FAP CM with or without LiCl
[2] = Lithium levels in mouse serum after oral LiCl; format: in vivo; conditions: oral LiCl 300 mg/liter in tap water, Lgr5-CreErt2;Rosa26mTmG mice
Experimental: as §1

SMILES: [Cl-].[Li+] [LiCl, lithium chloride]
- Adenoma formation (number of adenomas) (intestinal adenomas): markedly reduced adenoma formation in all segments of the intestine
- KrasG12D clone dynamics (KrasG12D-mutant clones): remained unaffected
- Effect on Apc-/- CM reduction of Wnt3a mediated Wnt activation (TOP-GFP) ([1]; MEFs, TOP-GFP reporter, 5 mM LiCl): completely abrogated this effect
- Wnt signalling activation in Wnt reporter assay, Li2CO3 compared with LiCl ([1]; comparable concentrations (5 or 10 mM)): activated the same amount of Wnt signalling
- Stemness (LGR5 expression) and clonogenicity of human colon organoids incubated with FAP CM (human colon organoids): rescued loss of sternness and clonogenicity
- Serum concentrations (Li+), tolerability [2]: well-tolerated serum concentrations
